Data: the NIST ThermoML archive (doi:10.1016/j.jct.2009.08.009)

Assay: xn = mol fraction of the nth substance listed
Details: 101 kPa, Liquid; for viscosity: Capillary tube (Ostwald / Ubbelohde) method; for speed of sound: Sing-around technique in a fixed-path interferometer; for mass density: Vibrating tube method

CCOCCOCCO [3,6-dioxa-1-octanol] + CCCCCCO
Details | mass density [kg/m3] | speed of sound [m/s] | viscosity [mPa·s]
293.15 K, x1 = 0.0515 | 828.146 | 1322.4 | 4.442
293.15 K, x1 = 0.1039 | 837.651 | 1324.9 | 4.111
293.15 K, x1 = 0.1456 | 845.454 | 1327.5 | 3.932
293.15 K, x1 = 0.2078 | 857.041 | 1331.1 | 3.714
293.15 K, x1 = 0.2501 | 864.989 | 1334.2 | 3.614
293.15 K, x1 = 0.3127 | 876.967 | 1338.7 | 3.482
293.15 K, x1 = 0.3517 | 884.493 | 1342.1 | 3.423
293.15 K, x1 = 0.5241 | 918.471 | 1358.7 | 3.279
293.15 K, x1 = 0.6227 | 938.481 | 1370.5 | 3.308
293.15 K, x1 = 0.7217 | 959.157 | 1384.3 | 3.352
293.15 K, x1 = 0.8227 | 980.826 | 1400.4 | 3.384
293.15 K, x1 = 0.915 | 1000.91 | 1416.4 | 3.588
293.15 K, x1 = 1 | – | – | 3.626
298.15 K, x1 = 0.0515 | 824.518 | 1305.4 | 3.906
298.15 K, x1 = 0.1039 | 833.976 | 1308 | 3.655
298.15 K, x1 = 0.1456 | 841.738 | 1310.6 | 3.495
298.15 K, x1 = 0.2078 | 853.267 | 1314.3 | 3.352
298.15 K, x1 = 0.2501 | 861.179 | 1317.4 | 3.237
298.15 K, x1 = 0.3127 | 873.107 | 1322 | 3.121
298.15 K, x1 = 0.3517 | 880.591 | 1325.3 | 3.066
298.15 K, x1 = 0.5241 | 914.427 | 1341.9 | 2.951
298.15 K, x1 = 0.6227 | 934.36 | 1353.8 | 2.965
298.15 K, x1 = 0.7217 | 954.955 | 1367.5 | 3.009
298.15 K, x1 = 0.8227 | 976.55 | 1383.5 | 3.054
298.15 K, x1 = 0.915 | 996.56 | 1399.5 | 3.235
298.15 K, x1 = 1 | – | – | 3.278
303.15 K, x1 = 0.0515 | 820.874 | 1288.7 | 3.381
303.15 K, x1 = 0.1039 | 830.282 | 1291.3 | 3.154
303.15 K, x1 = 0.1456 | 838.004 | 1293.9 | 3.026
303.15 K, x1 = 0.2078 | 849.482 | 1297.6 | 2.879
303.15 K, x1 = 0.2501 | 857.352 | 1300.7 | 2.809
303.15 K, x1 = 0.3127 | 869.225 | 1305.3 | 2.726
303.15 K, x1 = 0.3517 | 876.678 | 1308.7 | 2.682
303.15 K, x1 = 0.5241 | 910.37 | 1325.3 | 2.584
303.15 K, x1 = 0.6227 | 930.226 | 1337.1 | 2.605
303.15 K, x1 = 0.7217 | 950.745 | 1350.8 | 2.647
303.15 K, x1 = 0.8227 | 972.261 | 1366.7 | 2.693
303.15 K, x1 = 0.915 | 992.202 | 1382.6 | 2.801
303.15 K, x1 = 1 | – | – | 2.862
308.15 K, x1 = 0.0515 | 817.198 | 1272.1 | 2.901
308.15 K, x1 = 0.1039 | 826.564 | 1274.7 | 2.72
308.15 K, x1 = 0.1456 | 834.246 | 1277.3 | 2.631
308.15 K, x1 = 0.2078 | 845.669 | 1280 | 2.503
308.15 K, x1 = 0.2501 | 853.504 | 1284.2 | 2.443
308.15 K, x1 = 0.3127 | 865.322 | 1288.8 | 2.374
308.15 K, x1 = 0.3517 | 872.742 | 1292.1 | 2.342
308.15 K, x1 = 0.5241 | 906.299 | 1308.8 | 2.266
308.15 K, x1 = 0.6227 | 926.073 | 1320.6 | 2.278
308.15 K, x1 = 0.7217 | 946.516 | 1334.2 | 2.297
308.15 K, x1 = 0.8227 | 967.953 | 1350 | 2.349
308.15 K, x1 = 0.915 | 987.826 | 1365.8 | 2.445
308.15 K, x1 = 1 | – | – | 2.507

CCCCCCCCCCO [decan-1-ol] + CCOCCOCCO
x2 = 0
Details | viscosity [mPa·s]
293.15 K | 13.04
298.15 K | 11.19
303.15 K | 9.066
308.15 K | 7.459

CCCCCCO [hexan-1-ol] + CCOCCOCCO
x2 = 0
Details | viscosity [mPa·s]
293.15 K | 4.963
298.15 K | 4.439
303.15 K | 3.675
308.15 K | 3.108

CCCCCCCCO [octan-1-ol] + CCOCCOCCO
x2 = 0
Details | viscosity [mPa·s]
293.15 K | 8.309
298.15 K | 7.143
303.15 K | 5.969
308.15 K | 5.009
